Biological target: EZH2 (Homo sapiens (Human), UniProt Q15910)
Assay: PRC2 enzyme assay on peptide substrates
Format: biochemical
Details: PRC2 enzyme assays on peptide substrates; 4 nM enzyme, 30 min preincubation at 25° C.; read-out: EZH2 IC50

Chain of EZH2 (Q15910 other isoform, or with tags, fused parts or gaps): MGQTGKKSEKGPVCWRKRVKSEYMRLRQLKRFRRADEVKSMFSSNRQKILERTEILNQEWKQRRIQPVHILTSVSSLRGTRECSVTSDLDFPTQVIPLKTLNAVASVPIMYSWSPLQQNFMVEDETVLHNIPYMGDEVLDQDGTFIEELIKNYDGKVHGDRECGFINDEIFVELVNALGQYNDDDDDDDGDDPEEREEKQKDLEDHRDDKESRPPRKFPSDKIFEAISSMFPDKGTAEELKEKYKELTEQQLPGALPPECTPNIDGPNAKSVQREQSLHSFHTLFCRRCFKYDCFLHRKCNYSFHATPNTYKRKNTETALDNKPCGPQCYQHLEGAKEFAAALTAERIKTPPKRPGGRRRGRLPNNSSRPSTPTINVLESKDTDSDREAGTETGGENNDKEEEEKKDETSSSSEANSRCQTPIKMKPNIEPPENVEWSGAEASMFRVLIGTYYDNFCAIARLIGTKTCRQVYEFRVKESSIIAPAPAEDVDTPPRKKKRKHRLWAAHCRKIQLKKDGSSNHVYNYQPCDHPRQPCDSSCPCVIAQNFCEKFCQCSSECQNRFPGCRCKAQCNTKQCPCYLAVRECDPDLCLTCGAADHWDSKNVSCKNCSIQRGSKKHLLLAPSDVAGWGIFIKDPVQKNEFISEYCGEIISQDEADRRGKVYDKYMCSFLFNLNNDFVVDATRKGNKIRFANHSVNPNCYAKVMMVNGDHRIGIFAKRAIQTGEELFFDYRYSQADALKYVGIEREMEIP
Chain of EZH2 (O75530 whole entry partner): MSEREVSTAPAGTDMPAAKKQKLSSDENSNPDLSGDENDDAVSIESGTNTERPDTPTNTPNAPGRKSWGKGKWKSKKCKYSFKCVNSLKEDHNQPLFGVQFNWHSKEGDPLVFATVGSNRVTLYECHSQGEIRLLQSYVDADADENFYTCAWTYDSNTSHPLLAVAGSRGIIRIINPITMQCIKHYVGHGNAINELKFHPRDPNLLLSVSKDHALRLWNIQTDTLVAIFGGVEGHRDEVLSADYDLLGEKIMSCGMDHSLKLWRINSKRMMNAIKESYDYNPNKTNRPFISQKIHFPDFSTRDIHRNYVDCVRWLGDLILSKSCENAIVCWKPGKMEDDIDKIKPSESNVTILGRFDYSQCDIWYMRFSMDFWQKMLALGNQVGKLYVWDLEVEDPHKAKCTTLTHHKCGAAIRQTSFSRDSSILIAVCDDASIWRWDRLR
Chain of EZH2 (Q15022 whole entry partner): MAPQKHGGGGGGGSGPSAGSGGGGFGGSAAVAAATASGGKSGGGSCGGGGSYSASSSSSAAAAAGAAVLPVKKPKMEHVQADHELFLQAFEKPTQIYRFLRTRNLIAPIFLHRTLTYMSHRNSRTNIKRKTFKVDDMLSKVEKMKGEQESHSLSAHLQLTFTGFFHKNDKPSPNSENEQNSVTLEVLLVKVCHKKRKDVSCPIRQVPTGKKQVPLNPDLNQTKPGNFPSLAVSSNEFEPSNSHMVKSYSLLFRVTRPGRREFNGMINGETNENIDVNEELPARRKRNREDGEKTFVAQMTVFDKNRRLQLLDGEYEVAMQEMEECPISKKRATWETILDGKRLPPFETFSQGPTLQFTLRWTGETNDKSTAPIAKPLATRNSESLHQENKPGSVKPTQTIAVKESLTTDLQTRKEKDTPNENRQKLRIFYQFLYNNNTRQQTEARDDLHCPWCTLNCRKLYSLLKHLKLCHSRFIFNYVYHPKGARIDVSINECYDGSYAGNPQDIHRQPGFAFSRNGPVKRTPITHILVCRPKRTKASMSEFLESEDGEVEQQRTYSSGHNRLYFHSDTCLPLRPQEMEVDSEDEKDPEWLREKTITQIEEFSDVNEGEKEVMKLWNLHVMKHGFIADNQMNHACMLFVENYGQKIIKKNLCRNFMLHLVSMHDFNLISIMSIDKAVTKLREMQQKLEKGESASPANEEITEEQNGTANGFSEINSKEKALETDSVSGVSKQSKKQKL
Chain of EZH2 (Q09028 whole entry partner): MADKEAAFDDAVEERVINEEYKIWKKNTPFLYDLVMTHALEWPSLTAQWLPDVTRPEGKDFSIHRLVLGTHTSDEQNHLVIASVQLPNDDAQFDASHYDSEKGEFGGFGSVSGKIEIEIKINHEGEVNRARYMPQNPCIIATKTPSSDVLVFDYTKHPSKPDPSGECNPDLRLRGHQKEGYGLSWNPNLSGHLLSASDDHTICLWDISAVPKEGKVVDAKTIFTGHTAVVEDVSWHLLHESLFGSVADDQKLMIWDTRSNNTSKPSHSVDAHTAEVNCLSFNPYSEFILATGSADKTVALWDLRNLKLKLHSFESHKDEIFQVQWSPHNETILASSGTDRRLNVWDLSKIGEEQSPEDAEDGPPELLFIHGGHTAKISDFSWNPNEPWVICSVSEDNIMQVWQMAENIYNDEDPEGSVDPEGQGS

SMILES | IC50 [nM]
Cc1cc(C)c(CNC(=O)c2cc(Br)cc3c2cnn3C2CCN(C(=O)C3CCNCC3)CC2)c(=O)[nH]1 [Compound D-52] | < 300
Cc1cc(C)c(CNC(=O)c2cc(N3CCC(N4CCN(C(=O)OC(C)(C)C)CC4)CC3)nc3c2cnn3C(C)C)c(=O)[nH]1 [Compound B-108] | 1000 to 3000
Cc1cc(C)c(CNC(=O)c2cc(C3CCOCC3)nc3c2cnn3C(C)C)c(=O)[nH]1 [Compound B-129] | 3000 to 10000
Cc1cc(C)c(CNC(=O)c2cc(C3CCN(CCN(C)C)CC3)cc3c2cnn3C2CCCC2)c(=O)[nH]1 [Compound D-46] | < 300
C=C(C)c1cc(C(=O)NCc2c(C)cc(C)[nH]c2=O)c2cnn(C(C)C)c2n1 [Compound B-93] | 1000 to 3000
Cc1cc(C)c(CNC(=O)c2cc(-c3cnn(CCN4CCOCC4)c3)cc3c2cnn3C2CCCC2)c(=O)[nH]1 [Compound C-33] | < 300
Cc1cc(C)c(CNC(=O)c2cc(-c3ccc(C(=O)NCCN(C)C)cc3)nc3c2cnn3C(C)C)c(=O)[nH]1 [Compound A-18] | < 300
Cc1cc(C)c(CNC(=O)c2cc(C3=CC(C)(C)NC(C)(C)C3)nc3c2cnn3C2CCNCC2)c(=O)[nH]1 [Compound B-107] | 1000 to 3000
CNCCN(C)Cc1cccc(-c2cc(C(=O)NCc3c(C)cc(C)[nH]c3=O)c3c(n2)N(C(C)C)NC3)c1 [Compound A-58] | 1000 to 3000
Cc1cc(C)c(CNC(=O)c2ccnc3c2ccn3C(C)C)c(=O)[nH]1 [Compound F-1] | 3000 to 10000
Cc1cc(CN2CCC[C@@H]2C(N)=O)c(CNC(=O)c2cc(Br)cc3c2cnn3C2CCCC2)c(=O)[nH]1 [Compound D-22] | 1000 to 3000
Cc1cc(C)c(CNC(=O)c2cc(C3=CC(C)(C)NC(C)(C)C3)nc3c2cnn3C(C)C)c(=O)[nH]1 [Compound B-36] | 300 to 1000
Cc1cc(C)c(CNC(=O)c2cc(C3CCCCC3)nc3c2cnn3C(C)C)c(=O)[nH]1 [Compound B-142] | 3000 to 10000
Cc1cc(C)c(CNC(=O)c2cccc3c2cnn3C(C)C)c(=O)[nH]1 [Compound D-71] | 1000 to 3000
CNCC(=O)N1CC=C(c2cc(C(=O)NCc3c(C)cc(C)[nH]c3=O)c3cnn(C4CCCC4)c3c2)CC1 [Compound D-45] | < 300
Cc1cc(C)c(CNC(=O)c2cc(C3=CCN(C(=O)CO)CC3)cc3c2cnn3C2CCCC2)c(=O)[nH]1 [Compound D-54] | 300 to 1000
Cc1cc[nH]c(=O)c1CNC(=O)c1cc(-c2ccc3c(c2)OCCO3)nc2c1cnn2C(C)C [Compound A-77] | 10000 to 50000
Cc1[nH]c(=O)c(CNC(=O)c2cc(C3CC(C)(C)NC(C)(C)C3)nc3c2cnn3C(C)C)c(C)c1Cc1ccccc1 [Compound B-145] | 10000 to 50000
Cc1cc(C)c(CNC(=O)c2cc(-c3ccc(COCCCN4CCOCC4)cc3)cc3c2cnn3C2CCCC2)c(=O)[nH]1 [Compound C-18] | < 300

SMILES | IC50 [nM]
Cc1cc(C)c(CNC(=O)c2cc(OC3CCN(C)CC3)nc3c2cnn3C(C)C)c(=O)[nH]1 [Compound B-6, N-((4,6-dimethyl-2-oxo-1,2-dihydropyridin-3-yl)methyl)-1-isopropyl-6-((1-methylpiperidin-4-yl)oxy)-1H-pyrazolo[3,4-b]pyridine-4-carboxamide] | 300 to 1000
Cc1cc(C)c(CNC(=O)c2cc(-c3ccc(CN4CCOCC4)cc3C)cc3c2cnn3C2CCCC2)c(=O)[nH]1 [Compound C-6, 1-cyclopentyl-N-((4,6-dimethyl-2-oxo-1,2-dihydropyridin-3-yl)methyl)-6-(2-methyl-4-(morpholinomethyl)phenyl)-1H-indazole-4-carboxamide] | < 300
Cc1cc(C)c(CNC(=O)c2cc(-c3cccc(C(=O)O)c3)nc3c2cnn3C(C)C)c(=O)[nH]1 [Compound A-67] | 1000 to 3000
Cc1cc(C)c(CNC(=O)c2cc(-c3cccc(C[N+](C)(C)CCO)c3)cc3c2cnn3C2CCCC2)c(=O)[nH]1 [Compound C-19] | < 300
Cc1cc(C)c(CNC(=O)c2cc(C3=CC(C)(C)NC(C)(C)C3)nc3c2cnn3C2CCCCC2)c(=O)[nH]1 [Compound B-16, 1-cyclohexyl-N-((4,6-dimethyl-2-oxo-1,2-dihydropyridin-3-yl)methyl)-6-(2,2,6,6-tetramethyl-1,2,3,6-tetrahydropyridin-4-yl)-1H-pyrazolo[3,4-b]pyridine-4-carboxamide] | < 300
Cc1cc(C)c(CNC(=O)c2cc(C3=CCN(C(=O)C4CCNCC4)CC3)cc3c2cnn3C2CCCC2)c(=O)[nH]1 [Compound D-39] | < 300
Cc1cc(C)c(CNC(=O)c2cc(C3=CCN(C(=O)CN)CC3)nc3c2cnn3C(C)C)c(=O)[nH]1 [Compound B-63] | 300 to 1000
Cc1cc(C)c(CNC(=O)c2cc(Br)cc3c2cnn3C2CCN(C(=O)OC(C)(C)C)C2)c(=O)[nH]1 [Compound D-32] | 300 to 1000
Cc1cc(C)c(CNC(=O)c2cc(Br)cc3c2cnn3C2CCN(C(=O)C3CNC3)CC2)c(=O)[nH]1 [Compound D-14, 1-(1-(azetidine-3-carbonyl)piperidin-4-yl)-6-bromo-N-((4,6-dimethyl-2-oxo-1,2-dihydropyridin-3-yl)methyl)-1H-indazole-4-carboxamide] | < 300
Cc1cc(C)c(CNC(=O)c2cc(-c3cccc(CN)c3)nc3c2cnn3C(C)C)c(=O)[nH]1 [Compound A-32] | 300 to 1000
CCOC(=O)Cn1ncc2c(C(=O)NCc3c(C)cc(C)[nH]c3=O)cc(C3=CC(C)(C)NC(C)(C)C3)nc21 [Compound B-156] | 10000 to 50000
Cc1[nH]c(=O)c(CNC(=O)c2cc(C3=CC(C)(C)NC(C)(C)C3)nc3c2cnn3C(C)C)c(C)c1Cc1ccccc1 [Compound B-143] | 3000 to 10000
Cc1cc(C)c(CNC(=O)c2cc(C3CCN(C(=O)C(O)CN)CC3)nc3c2cnn3C(C)C)c(=O)[nH]1 (centres unmarked) [Compound B-96] | 1000 to 3000
Cc1cc(C)c(CNC(=O)c2cc(C3=CC(C)(C)NC(C)(C)C3)cc3c2cnn3C2CCCC2)c(=O)[nH]1 [Compound D-2, 1-cyclopentyl-N-((4,6-dimethyl-2-oxo-1,2-dihydropyridin-3-yl)methyl)-6-(2,2,6,6-tetramethyl-1,2,3,6-tetrahydropyridin-4-yl)-1H-indazole-4-carboxamide] | < 300
Cc1cc(C)c(CNC(=O)c2cc(-c3cnc(N)nc3)nc3c2cnn3C(C)C)c(=O)[nH]1 [Compound A-4, 6-(2-aminopyrimidin-5-yl)-N-((4,6-dimethyl-2-oxo-1,2-dihydropyridin-3-yl)methyl)-1-isopropyl-1H-pyrazolo[3,4-b]pyridine-4-carboxamide] | 300 to 1000
CCc1cc(C(=O)NCc2c(C)cc(C)[nH]c2=O)c2cnn(C(C)C)c2n1 [Compound B-117] | 1000 to 3000
Cc1cc(C)c(CNC(=O)c2cc(N3CCC(N4CCNCC4)CC3)nc3c2cnn3C(C)C)c(=O)[nH]1 [Compound B-44] | 300 to 1000
Cc1cc(C)c(CNC(=O)c2cc(-c3ccc(COCCCN(C)C)cc3)cc3c2cnn3C2CCCC2)c(=O)[nH]1 [Compound C-4, 1-cyclopentyl-N-((4,6-dimethyl-2-oxo-1,2-dihydropyridin-3-yl)methyl)-6-(4-((3-(dimethylamino)propoxy)methyl)phenyl)-1H-indazole-4-carboxamide] | < 300
Cc1cc(C)c(CNC(=O)c2cc(Cl)cc3c2cnn3C2CCCC2)c(=O)[nH]1 [Compound D-10, 6-chloro-1-cyclopentyl-N-((4,6-dimethyl-2-oxo-1,2-dihydropyridin-3-yl)methyl)-1H-indazole-4-carboxamide] | < 300
